Test results as given in patent US10208078B1 (SHAANXI UNIVERSITY OF SCIENCE AND TECHNOLOGY, priority 2018, dated 2019).

Assay: DPPH radical scavenging activity assay
Format: biochemical
Parameters: Scavenging activity (%): unit of the concentration uncertain
Conditions: for Scavenging activity (%): 0.2 mmol/L DPPH, 30 minutes room temperature in dark, absorbance at 517 nm
From the text: 2,2-Diphenyl-1-picryl hydrazyl (DPPH) is an organic compound composed of a stable organic radical. In the DPPH molecule, due to the presence of multiple electron-withdrawing —NO2 and large π bonds of the benzene ring, nitrogen free radical is stabilized. Its methanol solution is purple and has a maximum absorption peak at 517 nm. After the addition of an antioxidant, DPPH captures an electron to be paired with the free electron, and the purple fades and turns into a yellow substance. The absorption at 517 nm disappears, and the degree of fading is quantitatively related to the number of electrons it captures. Based on this principle, a spectrophotometer is used to detect the change of the absorbance of the DPPH radical and the sample solution, and the ability of the sample to provide hydrogen atoms and scavenge free radicals can be measured.
Preparation of DPPH solution: measuring exact amount of 2,2-diphenyl-1-picryl hydrazyl (DPPH) and dissolving in methanol to prepare a 0.2 mmol/L DPPH solution, stored at 0° C. in dark.
Measuring the scavenging activity of the sample solutions:
2 mL of the sample solutions at each concentration gradient was taken, 2 mL 0.2 mmol/L DPPH solution was added, the mixture was mixed and reacted at room temperature in dark for 30 minutes, and methanol was then added to adjust final volume. The absorbance Ai was measured at 517 nm. 2 mL control solution and 2 mL methanol were mixed, and the absorbance Aj was measured. 2 mL DPPH solution and 2 mL methanol were mixed, and the absorbance A0 was measured. The scavenging activity of the sample solution and control solutions is calculated according to the following calculation formula. Scavenging activity (%)=100×[1−(Ai−Aj)/A0]
In FIG. 1, the X axis represents the concentrations (PPM) of the sample and control solutions, and the Y axis represents the scavenging activity.

[1] = concentration 6.89 (unit uncertain)
[2] = concentration 68.9 (unit uncertain)
[3] = concentration 172 (unit uncertain)
[4] = concentration 689 (unit uncertain)
[5] = concentration 1724 (unit uncertain)
[6] = concentration 6890 (unit uncertain)
[7] = concentration 8620 (unit uncertain)

Row | SMILES | Scavenging activity (%) [1] | Scavenging activity (%) [2] | Scavenging activity (%) [3] | Scavenging activity (%) [4] | Scavenging activity (%) [5] | Scavenging activity (%) [6] | Scavenging activity (%) [7] | free radical clearance rate (achieved at a lower concentration than aesculin, thiodipropionic acid and their mixture)
1 | O=C1O[C@H]([C@@H](O)CO)C(O)=C1O [Vitamin C, vitamin C] | 53.40% | 96.15% | 96.28% | 96.79% | 96.79% | 97.18% | 97.43% | 
2 | O=C(CCSCCC(=O)OCC1OC(Oc2cc3ccc(=O)oc3cc2O)C(O)C(O)C1O)OCC1OC(Oc2cc3ccc(=O)oc3cc2O)C(O)C(O)C1O (stereo not shown) [Aesculin thiodipropionic acid ester, aesculin thiodipropionic acid ester] | 7.60% | 37.08% | 58.91% | 77.78% | 90.95% | 94.83% | 96.12% | more than 90%
3 | O=C(O)CCSCCC(=O)O [Thiodipropionic acid, 3,3′-thiodipropionic acid] | 1.13% | 3.84% | 4.64% | 5.20% | 5.43% | 6.33% | 6.57% | 
